Assays:
Type in all cases: biochemical
[1] = target: FGFR1 (Homo sapiens (Human), UniProt P11362); test: FGFR enzymatic assay (FRET peptide phosphorylation), FGFR1; conditions: FGFR1 enzyme 0.02 nM, ATP 210 μM
Method in brief: (§1)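 Recombinant kinase was pre-incubated 5–10 min with serially diluted inhibitor in HEPES buffer (10 mM MgCl2, 5 mM DTT, pH 7.5; buffer described for FGFR3). Peptide phosphorylation ran 1 h at 25 °C and was detected by FRET after ~1 h equilibration. IC50 values come from variable-slope sigmoidal fits.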

[2] = target: FGFR2 (Homo sapiens (Human), UniProt P21802); test: FGFR enzymatic assay (FRET peptide phosphorylation), FGFR2; conditions: FGFR2 enzyme 0.01 nM, ATP 100 μM
Chain of FGFR2 (P21802 22-821): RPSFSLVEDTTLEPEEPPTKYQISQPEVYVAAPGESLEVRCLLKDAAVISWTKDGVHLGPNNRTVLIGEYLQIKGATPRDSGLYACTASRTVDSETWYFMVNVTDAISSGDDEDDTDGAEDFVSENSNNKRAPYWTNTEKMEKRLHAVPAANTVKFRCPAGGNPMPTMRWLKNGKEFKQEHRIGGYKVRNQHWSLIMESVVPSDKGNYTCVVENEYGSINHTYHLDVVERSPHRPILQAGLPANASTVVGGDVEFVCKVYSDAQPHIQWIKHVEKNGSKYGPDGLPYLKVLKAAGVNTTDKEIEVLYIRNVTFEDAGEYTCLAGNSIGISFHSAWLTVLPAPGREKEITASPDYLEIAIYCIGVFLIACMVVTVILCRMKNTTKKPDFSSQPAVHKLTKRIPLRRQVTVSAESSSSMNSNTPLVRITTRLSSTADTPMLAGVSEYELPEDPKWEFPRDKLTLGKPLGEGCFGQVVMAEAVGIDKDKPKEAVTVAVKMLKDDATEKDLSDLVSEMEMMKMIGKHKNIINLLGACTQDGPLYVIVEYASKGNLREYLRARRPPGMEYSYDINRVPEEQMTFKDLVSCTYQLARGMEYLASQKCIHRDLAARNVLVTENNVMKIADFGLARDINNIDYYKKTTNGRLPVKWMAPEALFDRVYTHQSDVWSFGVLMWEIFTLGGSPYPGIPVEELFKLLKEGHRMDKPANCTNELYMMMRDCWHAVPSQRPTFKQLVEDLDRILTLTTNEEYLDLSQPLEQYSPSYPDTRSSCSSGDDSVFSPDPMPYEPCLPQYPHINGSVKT
Method in brief: as §1

[3] = target: FGFR3 (Homo sapiens (Human), UniProt P22607); test: FGFR enzymatic assay (FRET peptide phosphorylation), FGFR3; conditions: FGFR3 enzyme (Millipore), ATP 140 μM
Chain of FGFR3 (P22607 23-806): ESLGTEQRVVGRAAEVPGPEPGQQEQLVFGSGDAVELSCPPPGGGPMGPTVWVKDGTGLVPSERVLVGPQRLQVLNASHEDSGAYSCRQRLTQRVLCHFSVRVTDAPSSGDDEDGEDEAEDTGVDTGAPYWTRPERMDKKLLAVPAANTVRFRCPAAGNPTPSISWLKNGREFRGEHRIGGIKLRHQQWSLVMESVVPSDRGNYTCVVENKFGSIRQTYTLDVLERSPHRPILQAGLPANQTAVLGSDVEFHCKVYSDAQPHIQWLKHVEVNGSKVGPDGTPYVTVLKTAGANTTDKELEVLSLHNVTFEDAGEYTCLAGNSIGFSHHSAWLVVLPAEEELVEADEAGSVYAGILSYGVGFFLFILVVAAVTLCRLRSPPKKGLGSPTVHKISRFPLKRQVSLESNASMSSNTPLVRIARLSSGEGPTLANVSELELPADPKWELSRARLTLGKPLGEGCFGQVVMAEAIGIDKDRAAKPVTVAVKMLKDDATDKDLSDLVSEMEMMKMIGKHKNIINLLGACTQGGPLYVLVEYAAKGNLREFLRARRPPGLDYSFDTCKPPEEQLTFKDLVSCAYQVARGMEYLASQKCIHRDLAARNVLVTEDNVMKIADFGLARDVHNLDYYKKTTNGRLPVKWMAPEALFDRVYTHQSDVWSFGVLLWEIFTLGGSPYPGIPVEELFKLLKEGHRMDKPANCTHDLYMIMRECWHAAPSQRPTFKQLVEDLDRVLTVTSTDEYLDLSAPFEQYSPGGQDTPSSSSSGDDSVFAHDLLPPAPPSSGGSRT
Method in brief: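 FRET assay of peptide phosphorylation by FGFR3 in HEPES pH 7.5 buffer with MgCl2, EGTA, Tween-20 and DTT. Enzyme was pre-incubated 5-10 min with compound, and the reaction ran 1 hr at 25° C. IC50 came from a variable-slope sigmoidal fit.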

Chain of FGFR1 (P11362 22-822): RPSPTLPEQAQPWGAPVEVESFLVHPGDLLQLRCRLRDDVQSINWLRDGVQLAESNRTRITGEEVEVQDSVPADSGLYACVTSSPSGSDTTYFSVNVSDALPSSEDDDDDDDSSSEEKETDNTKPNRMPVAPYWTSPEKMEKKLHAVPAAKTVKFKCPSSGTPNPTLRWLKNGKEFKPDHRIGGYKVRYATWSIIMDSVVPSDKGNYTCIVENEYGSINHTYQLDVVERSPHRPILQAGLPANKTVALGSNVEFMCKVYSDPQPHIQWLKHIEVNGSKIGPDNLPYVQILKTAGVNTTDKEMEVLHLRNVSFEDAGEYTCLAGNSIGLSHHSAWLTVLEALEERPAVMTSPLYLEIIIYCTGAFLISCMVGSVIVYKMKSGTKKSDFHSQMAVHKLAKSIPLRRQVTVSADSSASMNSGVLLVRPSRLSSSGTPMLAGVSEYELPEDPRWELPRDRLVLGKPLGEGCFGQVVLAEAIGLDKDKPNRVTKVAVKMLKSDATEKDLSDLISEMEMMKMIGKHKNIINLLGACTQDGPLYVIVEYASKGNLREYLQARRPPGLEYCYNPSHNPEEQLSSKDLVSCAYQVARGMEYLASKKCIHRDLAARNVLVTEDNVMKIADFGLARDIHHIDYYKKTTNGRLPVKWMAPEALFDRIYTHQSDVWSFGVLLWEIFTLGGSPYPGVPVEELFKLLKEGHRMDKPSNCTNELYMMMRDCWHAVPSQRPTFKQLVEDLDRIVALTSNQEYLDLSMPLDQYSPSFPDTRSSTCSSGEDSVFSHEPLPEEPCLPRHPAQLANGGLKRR

Structure (SMILES) | IC50 [1] | IC50 [2] | IC50 [3]
COc1cc(OC)c(F)c(N2Cc3cnc4[nH]ncc4c3N(Cc3ccccn3)C2=O)c1F [Example 86, 3-(2,6-difluoro-3,5-dimethoxyphenyl)-1-(pyridin-2-ylmethyl)-1,3,4,7-tetrahydro-2H-pyrazolo[4′,3′:5,6]pyrido[4,3-d]pyrimidin-2-one] | < 100 nM | < 100 nM | < 100 nM
COc1cc(OC)c(F)c(N2Cc3cnc4[nH]ncc4c3N(C3CC3)C2=O)c1F [Example 87, 1-cyclopropyl-3-(2,6-difluoro-3,5-dimethoxyphenyl)-1,3,4,7-tetrahydro-2H-pyrazolo[4′,3′:5,6]pyrido[4,3-d]pyrimidin-2-one] | < 100 nM | < 100 nM | < 100 nM
COc1cc(OC)c(F)c(N2Cc3cnc4[nH]ncc4c3N([C@H]3CCCOC3)C2=O)c1F [Example 88, 3-(2,6-difluoro-3,5-dimethoxyphenyl)-1-[(3S)-tetrahydro-2H-pyran-3-yl]-1,3,4,7-tetrahydro-2H-pyrazolo[4′,3′:5,6]pyrido[4,3-d]pyrimidin-2-one] | < 100 nM | < 100 nM | < 100 nM
COc1cc(OC)c(F)c(N2Cc3cnc4[nH]ncc4c3N([C@H]3CCOC3)C2=O)c1F [Example 89, 3-(2,6-difluoro-3,5-dimethoxyphenyl)-1-[(3S)-tetrahydrofuran-3-yl]-1,3,4,7-tetrahydro-2H-pyrazolo[4′,3′:5,6]pyrido[4,3-d]pyrimidin-2-one] | < 100 nM | < 100 nM | < 100 nM
COc1cc(OC)c(F)c(N2Cc3cnc4[nH]ncc4c3N([C@@H]3CCOC3)C2=O)c1F [Example 90, 3-(2,6-difluoro-3,5-dimethoxyphenyl)-1-[(3R)-tetrahydrofuran-3-yl]-1,3,4,7-tetrahydro-2H-pyrazolo[4′,3′:5,6]pyrido[4,3-d]pyrimidin-2-one] | < 100 nM | < 100 nM | < 100 nM
COc1cc(OC)c(F)c(N2Cc3cnc4[nH]ncc4c3N(C(C)C)C2=O)c1F [Example 91, 3-(2,6-difluoro-3,5-dimethoxyphenyl)-1-isopropyl-1,3,4,7-tetrahydro-2H-pyrazolo[4′,3′:5,6]pyrido[4,3-d]pyrimidin-2-one] | < 100 nM | < 100 nM | < 100 nM
COc1cc(OC)c(F)c(N2Cc3cnc4[nH]ncc4c3N(c3ccccc3OC(F)(F)F)C2=O)c1F [Example 92, 3-(2,6-difluoro-3,5-dimethoxyphenyl)-1-[2-(trifluoromethoxy)phenyl]-1,3,4,7-tetrahydro-2H-pyrazolo[4′,3′:5,6]pyrido[4,3-d]pyrimidin-2-one] | < 100 nM | < 100 nM | < 100 nM
COc1cc(OC)c(F)c(N2Cc3cnc4[nH]ncc4c3N(c3cccc(C#N)c3)C2=O)c1F [Example 93, 3-[3-(2,6-difluoro-3,5-dimethoxyphenyl)-2-oxo-2,3,4,7-tetrahydro-1H-pyrazolo[4′,3′:5,6]pyrido[4,3-d]pyrimidin-1-yl]benzonitrile] | < 100 nM | < 100 nM | < 100 nM
COc1cc(OC)c(F)c(N2Cc3cnc4[nH]ncc4c3N(c3cccnc3)C2=O)c1F [Example 94, 3-(2,6-difluoro-3,5-dimethoxyphenyl)-1-pyridin-3-yl-1,3,4,7-tetrahydro-2H-pyrazolo[4′,3′:5,6]pyrido[4,3-d]pyrimidin-2-one] | < 100 nM | < 100 nM | < 100 nM
COc1cc(OC)c(F)c(N2Cc3cnc4[nH]ncc4c3N(c3nnn(C)n3)C2=O)c1F [Example 95, 3-(2,6-difluoro-3,5-dimethoxyphenyl)-1-(2-methyl-2H-tetrazol-5-yl)-1,3,4,7-tetrahydro-2H-pyrazolo[4′,3′:5,6]pyrido[4,3-d]pyrimidin-2-one] | < 100 nM | < 100 nM | < 100 nM
COc1cc(OC)c(F)c(N2Cc3cnc4[nH]ncc4c3N(c3cccc4cccnc34)C2=O)c1F [Example 96, 3-(2,6-difluoro-3,5-dimethoxyphenyl)-1-quinolin-8-yl-1,3,4,7-tetrahydro-2H-pyrazolo[4′,3′:5,6]pyrido[4,3-d]pyrimidin-2-one] | < 100 nM | < 100 nM | < 100 nM
COc1cc(OC)c(F)c(N2Cc3cnc4[nH]nc(C)c4c3N(C3CC3)C2=O)c1F [Example 97, 1-cyclopropyl-3-(2,6-difluoro-3,5-dimethoxyphenyl)-9-methyl-1,3,4,7-tetrahydro-2H-pyrazolo[4′,3′:5,6]pyrido[4,3-d]pyrimidin-2-one] | < 100 nM | < 100 nM | < 100 nM
CCN1C(=O)N(c2c(F)c(OC)cc(OC)c2F)Cc2cnc3[nH]nc(C)c3c21 [Example 98, 3-(2,6-difluoro-3,5-dimethoxyphenyl)-1-ethyl-9-methyl-1,3,4,7-tetrahydro-2H-pyrazolo[4′,3′:5,6]pyrido[4,3-d]pyrimidin-2-one] | < 100 nM | < 100 nM | < 100 nM

Results, then the compound that gave them:

IC50 [1] | IC50 [2] | IC50 [3] | Structure (SMILES)
< 100 nM | < 100 nM | < 100 nM | CCN1CCC(Cc2cc3c4c(cnc3[nH]2)CN(c2c(F)c(OC)cc(OC)c2F)C(=O)N4C)CC1 [Example 73, 3-(2,6-difluoro-3,5-dimethoxyphenyl)-8-[(1-ethylpiperidin-4-yl)methyl]-1-methyl-1,3,4,7-tetrahydro-2H-pyrrolo[3′,2′:5,6]pyrido[4,3-d]pyrimidin-2-one]
< 100 nM | < 100 nM | < 100 nM | COc1cc(OC)c(F)c(N2Cc3cnc4[nH]ccc4c3N([C@@H]3CCC[C@H]3O)C2=O)c1F [Example 74, 3-(2,6-difluoro-3,5-dimethoxyphenyl)-1-[(1R,2R)-2-hydroxycyclopentyl]-1,3,4,7-tetrahydro-2H-pyrrolo[3′,2′:5,6]pyrido[4,3-d]pyrimidin-2-one]
< 100 nM | < 100 nM | < 100 nM | COc1cc(OC)c(F)c(N2Cc3cnc4c(c3N([C@@H]3CCC[C@H]3O)C2=O)CC(=O)N4)c1F [Example 75, 3-(2,6-difluoro-3,5-dimethoxyphenyl)-1-[(1R,2R)-2-hydroxycyclopentyl]-3,4,7,9-tetrahydro-1H-pyrrolo[3′,2′:5,6]pyrido[4,3-d]pyrimidine-2,8-dione]
< 100 nM | < 100 nM | < 100 nM | COc1cc(OC)c(F)c(N2Cc3cnc4[nH]ccc4c3N(c3cccc(F)c3F)C2=O)c1F [Example 76, 3-(2,6-difluoro-3,5-dimethoxyphenyl)-1-(2,3-difluorophenyl)-1,3,4,7-tetrahydro-2H-pyrrolo[3′,2′:5,6]pyrido[4,3-d]pyrimidin-2-one]
< 100 nM | < 100 nM | < 100 nM | COc1cc(OC)c(F)c(N2Cc3cnc4[nH]ccc4c3N(Cc3ccccn3)C2=O)c1F [Example 78, 3-(2,6-difluoro-3,5-dimethoxyphenyl)-1-(pyridin-2-ylmethyl)-1,3,4,7-tetrahydro-2H-pyrrolo[3′,2′:5,6]pyrido[4,3-d]pyrimidin-2-one]
< 100 nM | < 100 nM | < 100 nM | COc1cc(OC)c(F)c(N2Cc3cnc4c(c3N(Cc3ccccn3)C2=O)CC(=O)N4)c1F [Example 79, 3-(2,6-difluoro-3,5-dimethoxyphenyl)-1-(pyridin-2-ylmethyl)-3,4,7,9-tetrahydro-1H-pyrrolo[3′,2′:5,6]pyrido[4,3-d]pyrimidine-2,8-dione]
< 100 nM | < 100 nM | < 100 nM | COc1cc(OC)c(F)c(N2Cc3cnc4c(c3N(c3ccc(Cl)cc3)C2=O)CC(=O)N4)c1F [Example 80, 1-(4-chlorophenyl)-3-(2,6-difluoro-3,5-dimethoxyphenyl)-3,4,7,9-tetrahydro-1H-pyrrolo[3′,2′:5,6]pyrido[4,3-d]pyrimidine-2,8-dione]
< 100 nM | < 100 nM | < 100 nM | COc1cc(OC)c(F)c(N2Cc3cnc4c(c3N(c3ccc(Cl)cn3)C2=O)CC(=O)N4)c1F [Example 81, 1-(5-chloropyridin-2-yl)-3-(2,6-difluoro-3,5-dimethoxyphenyl)-3,4,7,9-tetrahydro-1H-pyrrolo[3′,2′:5,6]pyrido[4,3-d]pyrimidine-2,8-dione]
< 100 nM | < 100 nM | < 100 nM | COc1cc(OC)c(F)c(N2Cc3cnc4[nH]ccc4c3N(c3cccc(C#N)c3)C2=O)c1F [Example 82, 3-[3-(2,6-difluoro-3,5-dimethoxyphenyl)-2-oxo-2,3,4,7-tetrahydro-1H-pyrrolo[3′,2′:5,6]pyrido[4,3-d]pyrimidin-1-yl]benzonitrile]
< 100 nM | < 100 nM | < 100 nM | COc1cc(OC)c(F)c(N2Cc3cnc4[nH]ccc4c3N(c3cccnc3)C2=O)c1F [Example 83, 3-(2,6-difluoro-3,5-dimethoxyphenyl)-1-pyridin-3-yl-1,3,4,7-tetrahydro-2H-pyrrolo[3′,2′:5,6]pyrido[4,3-d]pyrimidin-2-one]
< 100 nM | < 100 nM | < 100 nM | COc1cc(OC)c(F)c(N2Cc3cnc4[nH]ccc4c3N(c3cccc(Cl)c3F)C2=O)c1F [Example 84, 1-(3-chloro-2-fluorophenyl)-3-(2,6-difluoro-3,5-dimethoxyphenyl)-1,3,4,7-tetrahydro-2H-pyrrolo[3′,2′:5,6]pyrido[4,3-d]pyrimidin-2-one]
< 100 nM | < 100 nM | < 100 nM | COc1cc(OC)c(F)c(N2Cc3cnc4[nH]ncc4c3N(c3cnn(C)c3)C2=O)c1F [Example 85, 3-(2,6-difluoro-3,5-dimethoxyphenyl)-1-(1-methyl-1H-pyrazol-4-yl)-1,3,4,7-tetrahydro-2H-pyrazolo[4′,3′:5,6]pyrido[4,3-d]pyrimidin-2-one]

Reference: patent US9611267B2, “Substituted tricyclic compounds as FGFR inhibitors” (Incyte Corporation, priority 2012, dated 2017)
